Here are results for four molecules from article PMC5983288, “The Maxi-K (BK) Channel Antagonist Penitrem A as a Novel Breast Cancer-Targeted Therapeutic” (Marine Drugs, 2018).

For assay [1], the system named is TNF-α. The assay is described as follows: Western blot, TNF-α levels in BC cells. The conditions noted are these: MDA-MB-231, BT-474, SK-BR-3; 10 µM treatments; vs control. The assay is classed as cell-based, human. Here is the method:
(§1) MDA-MB-231, BT-474, SK-BR-3, Schwann CRL-2765, and MCF-12A cells, were plated at a density of 1 × 10^6 cells/100 mm culture plates. MDA-MB-231, BT-474, and SK-BR-3 were plated in RPMI-1640 media supplemented with 10% FBS, Schwann cells CRL-2765 were plated in DMEM media supplemented with 10% FBS [11], and MCF-12A cells were plated in DMEM/F12 supplemented with ingredients described earlier. Cells were allowed to adhere overnight, then washed twice with PBS, and starved in control or treatment in serum-free medium containing 0.5% FBS for 48 h to synchronize the cells in G1 phase. Afterwards, cells were treated with tested penitrems in serum-free defined media for 24 h. At the end of treatment periods, cells were lysed in RIPA buffer (Qiagen Sciences Inc., Valencia, CA, USA). Protein concentration was determined by the BCA assay (Bio-Rad, Hercules, CA, USA). Equivalent amounts of protein (50 µg) were electrophoresed on SDS-polyacrylamide gels. The gels were then electroblotted onto PVDF membranes. These PVDF membranes were then blocked with 2% BSA in 10 mM Tris-HCl containing 50 mM NaCl and 0.1% Tween 20, pH 7.4 (TBST), and then incubated with specific primary antibodies overnight at 4 °C. […] Western blot quantification analysis was done using Image Lab ^TM Software (Bio-Rad, Hercules, CA, USA) for total protein normalization.

Assay [2] has as its system BK channel subunits α-1 (KCNMA1). The assay is described as follows: Western blot, BK channel expression in BC cells. The assay is classed as cell-based, human. The note with it: MDA-MB-231, BT-474, SK-BR-3; 10 µM treatments; vs control. Here is the method: as §1
Background: A western blot detects proteins with antibodies after separation by electrophoresis.

The subject of assay [3] is SK-BR-3 cells. The assay is described as follows: MTT cell viability assay, SK-BR-3. The note with it: SK-BR-3, MTT, 48 h. The format is cell-based, human. The method, then:
(§2) Penitrems were dissolved in dimethyl sulfoxide (DMSO) to provide a final 25 mM stock solution. Proper media were used to prepare penitrems at their final tested doses for each assay. […] The effects of penitrems 1–3 on the proliferation and growth of multiple BC cell lines were evaluated using MTT assay. MDA-MB-231, BT-474, and SK-BR-3 BC cells (ATCC, Manassas, VA, USA) were initially seeded at 1 × 10^4 cells/well (6 replicates/group) in 96-well plates in RPMI-1640 media containing 10% FBS, and allowed to attach overnight. The next day, cells were washed with PBS, divided into different treatment groups, and then given various concentrations of tested penitrems in 0.5% FBS containing media. Viable cell number was calculated after 48 h using the MTT assay.
(§3) To evaluate the effect of penitrems on growth of the human neuronal Schwann CRL 2765 (ATCC, Manassas, VA, USA), cells were plated at a density of 1 × 10^4 cell per well (6-wells/group) in 96-well culture plates using the ATCC-recommended media (Dulbecco’s Modified Eagle’s Medium, DMEM) and allowed to adhere overnight for growth studies, after which each treatment was added, and cells were maintained for 48 h. Similarly, the non-tumorigenic mammary epithelial MCF-12A cells were plated in DMEM/F12 supplemented with 5% horse serum, […], 20 ng/mL EGF, 100 U/mL penicillin, 0.1 mg/mL streptomycin, and […]. Next day, cells were divided into different groups and fed serum-free DMEM media supplemented with experimental treatments or vehicle-treated control media. Viable cell number was determined using the MTT colorimetric assay. The absorbance was measured at λ570 nm on a BioTek Synergy2 microplate reader (BioTek, Winooski, VT, USA). The number of cells per well was calculated against a standard curve prepared at the start of the experiment. The IC50 value for each tested sample was calculated by non-linear regression of log concentration versus the % survival, implemented in GraphPad® PRISM version 5.0 (Graph Pad Software, Inc., La Jolla, CA, USA).
(In general: Tetrazolium assays rely on reduction of a dye to a coloured formazan, in cell work by metabolically active cells.)

Assay [4] deals with BT-474 cells. Kind of assay: cells. The format is cell-based, human. The method, then: Penitrems were dissolved in dimethyl sulfoxide (DMSO) to provide a final 25 mM stock solution. Proper media were used to prepare penitrems at their final tested doses for each assay. […] The effects of penitrems 1–3 on the proliferation and growth of multiple BC cell lines were evaluated using MTT assay. […] The next day, cells were washed with PBS, divided into different treatment groups, and then given various concentrations of tested penitrems in 0.5% FBS containing media. Viable cell number was calculated after 48 h using the MTT assay.
as §3, with “Similarly,” for “To evaluate the effect of penitrems on growth of the human neuronal Schwann CRL 2765 (ATCC, Manassas, VA, USA), cells were plated at a density of 1 × 10^4 cell per well (6-wells/group) in 96-well culture plates using the ATCC-recommended media (Dulbecco’s Modified Eagle’s Medium, DMEM) and allowed to adhere overnight for growth studies, after which each treatment was added, and cells were maintained for 48 h. Similarly,”

Assay [5] deals with human neuronal Schwann cells CRL-2765. Kind of assay: MTT cell viability assay, Schwann CRL-2765. The assay is classed as cell-based. The conditions noted are these: CRL-2765, MTT, 48 h. The method, then: as §2, §3
The test system of assay [6] is MDA-MB-231 cells. The assay is described as follows: MTT cell viability assay, MDA-MB-231. The assay is classed as cell-based, human. The note with it: MDA-MB-231, MTT, 48 h. The method, then: as §2, §3
In assay [7] the test system is MCF-12A cells (non-tumorigenic human mammary epithelial cells). Kind of assay: MTT cell viability assay, MCF-12A. The assay is classed as cell-based. The note with it: 48 h. Here is the method: as §2, §3
For assay [8], the system named is BK channels. Further details: method as in PMID 27834847, PMID 14593856. The note with it: cited from earlier work.
The test system of assay [9] is BK channel subunits α-1 (KCNMA1). Kind of assay: Immunocytochemical fluorescence staining of KCNMA1. The format is cell-based, human. The conditions noted are these: MDA-MB-231 (9.8 µM) and BT-474 (10.3 µM), 24 h, vs vehicle-treated controls. The method, then: Immunocytochemical fluorescent studies were conducted by growing MDA-MB-231 and BT-474 cells mammary cancer cells on 8-chamber culture slides (Becton Dickinson and Company, Franklin Lakes, NJ, USA) at a density of 2 × 10^4 cells/chamber (2 replicates/group), and allowed to attach overnight in complete serum media supplemented with 10% FBS. […] At the end of experiment, cells were washed with pre-cooled PBS, and fixed with acetone, pre-cooled to −20 °C, for 2 min. Fixed cells were then washed with PBS, and blocked with 2% BSA in 10 mM Tris-HCl containing 50 mM NaCl and 0.1% Tween 20, pH 7.4 (TBST) for 1 h at rt. Cells were then incubated with specific primary antibody for BK channel KCNMA1 (1:300) overnight at 4 °C in 2% BSA-TBST. At the end of incubation time, cells were washed five times with pre-cooled PBS, followed by incubation with Alexa-Fluor 594-conjugated secondary antibody (1:5000) in 2% BSA-TBST for 1 h at rt. After final washing for five times with PBS, cells were embedded in Vectashield Mounting Medium with DAPI (Vector Laboratories Inc., Burlingame, CA, USA). Fluorescent images were obtained by using a confocal laser scanning microscope (Carl Zeiss Microimaging Inc., Thornwood, NY, USA). The red color indicates the positive fluorescence staining for BK channel KCNMA1, and the blue color represents MDA-MB-231 cell nuclei counter-stained with DAPI [30]. […]

Where [10] appears, read: Homo sapiens, BT-474, MTT, 48 h.

pIC50: −log10 of the molar value.

The pIC50 is the negative decadic logarithm of the IC50, by convention in mol/L. Turning to `C=C(C)[C@H]1O[C@H]2CC[C@@]3(C)[C@@](O)(CC[C@H]4[C@@H]5OC(C)(C)[C@H]6C[C@@H]7C(=C)Cc8ccc9[nH]c(c5c9c8[C@@]76O)[C@@]43C)[C@]23O[C@@H]3[C@H]1O` [Compound 2, Penitrem E], the “total levels of TNF-α” value in assay [1] is “increased total levels of TNF-α in both BT-474 and SK-BR-3 cells”. Also, the “total levels of BK channel subunits α-1 (KCNMA1)” value in [2] was “did not cause changes”. Moreover, the pIC50 in [3] (Homo sapiens) is 4.44; in assay [4] (setting [10]), 4.50; in assay [5] (Homo sapiens) it was 4.17; in assay [6] (Homo sapiens), 4.69; in [7] (Homo sapiens), 4.36.
`C=C(C)C1OC2CCC3(C)C4(C)c5[nH]c6cc(Cl)c7c8c6c5C(OC(C)(C)C5CC(C(=C)C7)C85O)C4CCC3(O)C23OC3C1OC` (stereo not shown) [Compound 3, 25-O-methylpenitrem A]: the pIC50 was 4.57 in [3] (Homo sapiens); 4.65 in assay [4] (setting [10]); 4.32 in [5] (Homo sapiens); 4.42 in [6] (Homo sapiens); 4.10 in assay [7] (Homo sapiens).
Consider `CS(=O)(=O)CCNCc1ccc(-c2ccc3ncnc(Nc4ccc(OCc5cccc(F)c5)c(Cl)c4)c3c2)o1` [LP, lapatinib, reference compound], for which the pIC50 in assay [4] (Homo sapiens, BT-474, single agent) is 6.91.
Regarding Penitrem A [Compound 1], in [1], the “total levels of TNF-α” value is given as “increased total levels of TNF-α”. Besides, in assay [2], the “total levels of BK channel subunits α-1 (KCNMA1)” value was “greatest reduction”. For the same molecule, the pIC50 was 4.82 in assay [3]; 4.99 in [4] (BT-474, MTT, 48 h); 4.65 in [5]; 5.01 in assay [6]; 4.47 in [7]. The BK channels antagonism result in assay [8] is “potent BK channels antagonist at very low molar concentration”. In addition, the “total levels of KCNMA1 (immunofluorescence)” value in assay [9] is “remarkable reduction”.
